Target: T1, α1β3γ2 GABAA receptor, γ2Y468C variant (Homo sapiens, UniProt P14867+P18507+P28472, Y468C)
T1 construct: expressed in transfected cells; host or cells: HEK293T
T1 sequence (P14867 28-456): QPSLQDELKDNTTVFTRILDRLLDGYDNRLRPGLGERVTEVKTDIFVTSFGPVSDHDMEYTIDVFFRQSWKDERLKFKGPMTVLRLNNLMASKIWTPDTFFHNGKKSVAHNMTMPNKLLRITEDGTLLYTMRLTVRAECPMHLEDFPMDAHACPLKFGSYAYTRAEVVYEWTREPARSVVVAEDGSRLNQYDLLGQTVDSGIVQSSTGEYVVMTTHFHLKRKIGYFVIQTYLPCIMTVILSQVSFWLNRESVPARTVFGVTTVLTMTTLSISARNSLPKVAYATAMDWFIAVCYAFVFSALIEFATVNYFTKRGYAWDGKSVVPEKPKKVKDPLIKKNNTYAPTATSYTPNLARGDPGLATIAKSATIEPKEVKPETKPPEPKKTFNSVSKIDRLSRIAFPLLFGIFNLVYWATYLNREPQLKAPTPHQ
T1 sequence (P28472 26-473 isoform P28472-2): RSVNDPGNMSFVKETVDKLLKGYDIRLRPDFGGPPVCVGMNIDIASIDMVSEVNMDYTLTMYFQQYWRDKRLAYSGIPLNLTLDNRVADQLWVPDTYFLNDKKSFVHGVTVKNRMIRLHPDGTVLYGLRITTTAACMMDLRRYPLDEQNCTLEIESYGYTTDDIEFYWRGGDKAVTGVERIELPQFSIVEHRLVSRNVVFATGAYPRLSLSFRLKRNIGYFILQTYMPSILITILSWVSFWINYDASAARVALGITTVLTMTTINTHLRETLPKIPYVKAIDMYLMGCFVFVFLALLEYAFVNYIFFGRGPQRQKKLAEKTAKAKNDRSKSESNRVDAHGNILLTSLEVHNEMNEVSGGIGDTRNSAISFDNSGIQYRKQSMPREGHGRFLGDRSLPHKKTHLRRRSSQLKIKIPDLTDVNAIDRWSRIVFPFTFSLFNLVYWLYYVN
T1 sequence (P18507 40-475 Y468C): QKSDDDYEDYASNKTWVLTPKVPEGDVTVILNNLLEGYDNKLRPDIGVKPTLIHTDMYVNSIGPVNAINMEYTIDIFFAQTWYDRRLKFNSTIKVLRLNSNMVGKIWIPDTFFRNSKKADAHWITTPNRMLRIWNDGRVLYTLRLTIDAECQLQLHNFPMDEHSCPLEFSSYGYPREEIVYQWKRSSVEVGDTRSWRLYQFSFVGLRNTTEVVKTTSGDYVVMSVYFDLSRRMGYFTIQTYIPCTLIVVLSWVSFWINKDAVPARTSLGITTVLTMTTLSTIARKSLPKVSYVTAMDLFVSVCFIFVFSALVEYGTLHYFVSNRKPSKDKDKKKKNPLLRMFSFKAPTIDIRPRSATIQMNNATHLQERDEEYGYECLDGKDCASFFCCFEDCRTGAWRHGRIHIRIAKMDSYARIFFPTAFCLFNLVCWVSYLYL
Experiment: Automated patch clamp of GABA-elicited currents (SyncroPatch 384PE), γ2Y468C
Format: cell-based
Details: mean
Experimental: The coding sequences of human α1 (GABRA1, NM_000806), β3 (GABRB3, NM_021912), and γ2 (GABRG2, NM_198904.2) GABAAR subunits were subcloned into the pcDNA3.1 expression vectors (Invitrogen, Waltham, MA, USA).
HEK293T cells (ATCC, CRL-11268) were cultured at 37 °C in a humidified 5% CO2 incubator and maintained in Dulbecco’s modified Eagle’s medium (Invitrogen) supplemented with 10% fetal bovine serum (Life Technologies, Carlsbad, CA, USA), and 100 IU/mL of penicillin/streptomycin (Life Technologies). For the expression experiments, 4 × 10^5 cells were transfected using polyethylenimine (PEI) reagent (40 kD, Polysciences, Warrington, PA, USA) at a DNA: to transfection reagent ratio of 1:2.5 and harvested 36 h after transfection. To express WT and variant α1β3γ2 receptors, a total of 3 µg of α1, β3, and γ2 (WT or mutant) subunit cDNAs were transfected at a ratio of 1:1:1 into 60 mm culture dishes. For the mock-transfected condition, an empty pcDNA3.1 vector was added for a final cDNA transfection amount of 3 μg. For the electrophysiology experiments, 2.5 × 10^5 cells were plated in 100 mm culture dishes and transfected after 24 h with 3 μg of cDNA of each α1, β3, γ2 (wild-type or mutant) subunit, using X-tremeGENE HP DNA transfection Reagent (Roche Diagnostics, Basel, Switzerland), following the manufacturer’s protocol. Recordings were obtained forty-eight hours after transfection.
Whole-cell patch clamp recordings were conducted according to the manufacturer’s standard procedure for the SyncroPatch 384 [31]. Whole-cell voltage-clamp recordings were performed at room temperature on HEK293T cells 48 h after transfection with GABAAR subunits, using the SyncroPatch 384PE (Nanion Technologies, Munich, Germany). Cells, at a concentration of 400,000 cells/mL, were harvested in suspension in external solution containing 140 mM of NaCl, 2 mM of CaCl2, 4 mM of KCl, 1 mM of MgCl2, 5 mM of glucose, and 10 mM of HEPES (pH 7.4 with NaOH, 298 mOsm). The cells were loaded in a multi-hole (4 holes per well) 384-well Nanion patch clamp (NPC) chip with a thick borosilicate glass bottom and an average resistance pore size of […]. Built-in electrophysiological protocols were used, and the data were digitized using PatchControl 384 (Nanion Technologies) application. Using PatchControl 384, electrophysiological parameters, such as seal resistance, capacitance, and series resistance, were determined for each well after the application of a test pulse, and subsequently monitored over time. […] The currents were normalized to the maximal response of each well, and the concentration–response curves were calculated from single-point additions. The EC50 values for each variant or wild-type receptor were calculated across multiple wells for each experimental condition.

Deactivation (1 mM GABA for 5 ms, HEK293T, -80 mV): 433.9 ms
IMAX (maximal GABA-evoked peak current) (1 mM GABA for 5 ms, HEK293T): 0.80 nA
IMAX variant/IMAX WT (1 mM GABA): 40.06%
Rise Time (10–90% rise time, 1 mM GABA for 5 ms, HEK293T): 26.52 ms
Structure (SMILES): NCCCC(=O)O [GABA, γ-aminobutyric acid]
